Laboratory results: US11730712B2, “Functionalized long-chain hydrocarbon mono- and di-carboxylic acids and derivatives thereof, and their use for the prevention or treatment of disease” (ESPERVITA THERAPEUTICS, INC., priority 2021, dated 2023)
Values joined by “and” are separate entries in the source; they are usually repeats but may differ in a detail not shown here. Equal values may be shown once.

Tests used:
[1] = tested on: mouse primary hepatocytes; experiment: 14C-acetate incorporation into total lipids in primary mouse hepatocytes; type: cell-based; settings: Hepatocyte, 4-hour period, read-out: IC50 in μM, inhibition of 14C-acetate incorporation in total lipids
Protocol: After perfusion, collagen digested liver cells were re-suspended in William's E media (11 mM glucose) (Gibco) supplemented with 10% fetal bovine serum (FBS) (Gibco), 2 mM L-glutamine (Gibco) and 1% Antibiotic-Antimycotic (Gibco) mixture and seeded in white opaque 96-well plates. On the following day, the cells were serum-starved for 2 hours, then treated with 0 μM, 0.1 μM, 0.3 μM, 0.5 μM, 1 μM, 3 μM, 10 μM, and 100 μM of Compound I-32, Compound I-1, or Compound III-1 or Reference Compound (e.g., Compounds A-E and bempedoic acid) in the presence of ^14C-Acetate (1 μCi/ml, PerkinElmer). Each of Compound I-32, Compound I-1, Compound III-1, and Reference Compound was solubilized in 100% DMSO to a final concentration of 100 mM stock solution. In the experimental condition, the stock solution was diluted in serum free media (William's E media (11 mM glucose) (Gibco), 2 mM L-glutamine (Gibco) and 1% Anti biotic-Antimycotic) to yield the desired concentration of each compound. […] After 4 hours of treatment, the plates were washed two times with PBS (×1) and 100 μL microscint fluid (Microscint O, part #601361) was added in each well. Plates were wrapped with aluminum foil and were shaken at 250 rpm for 2 h. After 2 h of shaking, ^14C incorporation into lipid was determined by liquid scintillation counting using a TopCount NXT Microplate Scintillation and Luminescence Counter (Perkin Elmer).
The effects of Compound I-32. Compound I-1, and Compound III-1 on mouse primary hepatocyte lipogenesis are represented in Table 1. Each Compound was assayed at a concentration of 0 μM (vehicle control), 0.1 μM, 0.3 μM, 0.5 μM, 1 μM, 3 μM, 10 μM, and 100 μM, unless otherwise noted. Statistically significant inhibition was determined by one-way ANOVA and Dennett's post hoc test where appropriate. […] IC50 values were determined by nonlinear regression. All statistical analyses were carried out using GraphPad Prism 8 software. A p-value of less than or equal 0.05 was considered significant.

C57BL6/J mice = experiment: Indirect calorimetry (CLAMS) in fructose-fed C57BL6 mice; type: in vivo, mouse; settings: 100 mg/kg oral gavage, refed mice with RER >1
Protocol: Materials and Methods. All experiments were carried out using the methods approved by the Animal Research Ethics Board at McMaster University, Canada (Steinberg Laboratory Animal Utilization Protocol #16-12-42). 8-Week-old male C57BL6/J mice were ordered from Jackson Laboratory, Bar Harbor, Me. and housed at the McMaster University Central Animal Facility. Animals were housed in the ventilated cages racks system and provided with ad libitum access to normal chow diet (Teklad 8640 22/5 rodent diet, procured from Envigo, Mississauga ON) and water supplemented with fructose (30% weight/volume, made fresh weekly) for at least 2-weeks before testing commenced. […] Data were analyzed using one-way analyses of variance followed by a Tukey's multiple comparisons post hoc test where appropriate. […]
Experimental and Results. Respiratory Exchange Ratio (RER) and related metabolic parameters were measured using the Comprehensive Lab Animal Monitoring System (CLAMS, Columbus Instruments, Columbus, Ohio). […] RER was monitored and those animals with RER values >1 were administered either vehicle (1.5% Carboxymethyl cellulose and 0.2% Tween 20) alone or vehicle containing Compound I-1 or Compound I-32 at a dose of 100 mg/kg via oral gavage. Animals remained in the metabolic cages and RER, activity level, locomotor activity, and food intake were monitored for 24 hours. […]

human ACLY = biological target: T1, human ACLY (Homo sapiens, UniProt P53396); experiment: ATP-citrate lyase (ACLY) enzymatic assay (ADP-Glo); type: biochemical; settings: recombinant human ACLY, Run 1-3, read-out: Compound IC50 (M) ACLY
T1 construct: human ACLY (P533%) (Met 1-Met 1101) expressed in Baculovirus-Insect Cells; purchased Sino Biological Inc. 11769-H07B; host or cells: Baculovirus-Insect Cells
Protocol: ATP citrate lyase was obtained from Sino Biological Inc. Cat #11769-H07B, Lot #LC08DE1701. It was prepared from a DNA sequence encoding the human ACLY (P533%) (Met 1-Met 1101) expressed in Baculovirus-Insect Cells, with a polyhistidine tag at the N-terminus. The recombinant human ACLY consists of 1120 amino acids and has a calculated molecular mass of 123 kDa. It migrates as an approximately 110 kDa band in SDS-PAGE under reducing conditions. The enzyme came as a lyophilized powder in sterile 20 mM Tris, 500 mM NaCl, pH 8.0, 10% glycine. Normally 5%-8% trehalose and mannitol are added as protectants before lyophilization. […]
To detect ADP produced from ACL assay, the ADP-Glo™ assay format from Promega, Madison, Wis., was used, to detect the conversion of ATP to ADP. […] This assay is performed in two steps: i) after the ACL-mediated enzymatic reaction that utilizes ATP and produces ADP, ADP-Glo™ Reagent is added to terminate the kinase reaction and deplete the remaining ATP, and ii) the Kinase Detection Reagent is added to convert ADP to ATP and allow the newly synthesized ATP to be measured using a luciferase/luciferin reaction. The light generated, measured in a luminometer, correlates to the amount of ADP generated in the ACL assay, which is indicative of ACL activity. […]

Structure (SMILES)	IC50 [1] [µM]	Respiratory Exchange Ratio (RER) compared to vehicle treated group (C57BL6/J mice)	IC50 (human ACLY)
CC(C)(CCCCc1ccc(CCCCC(C)(C)C(=O)O)cc1)C(=O)O [Compound I-1, 6-[4-(5-carboxy-5-methylhexyl)-phenyl]-2,2-dimethylhexanoic acid]	0.46	significant reduction in the RER	–
CC(C)(CCCCc1cccc(CCCCC(C)(C)C(=O)O)c1)C(=O)O [Compound I-32, 6-[3-(5-carboxy-5-methylhexyl)-phenyl]-2,2-dimethylhexanoic acid]	0.34	significant reduction in the RER	–
CC(C)(CCCCc1cccc(CCCCC(C)(C)C(=O)SCCNC(=O)CCNC(=O)[C@H](O)C(C)(C)COP(=O)(O)OP(=O)(O)OC[C@H]2O[C@@H](n3cnc4c(N)ncnc43)[C@H](O)[C@@H]2OP(=O)(O)O)c1)C(=O)O [Compound I-32-CoA, 6-[3-(5-Carboxy-5-methylhexyl)-phenyl]-2,2-dimethylhexanoic acid Coenzyme A Ester]	–	–	9.88e-07 M and 1.22e-06 M and 1.44e-06 M
CC(C)(CCCCc1ccc(CCCCC(C)(C)C(=O)SCCNC(=O)CCNC(=O)[C@H](O)C(C)(C)COP(=O)(O)OP(=O)(O)OC[C@H]2O[C@@H](n3cnc4c(N)ncnc43)[C@H](O)[C@@H]2OP(=O)(O)O)cc1)C(=O)O [Compound I-1-CoA, 6-[4-(5-carboxy-5-methylhexyl)-phenyl]-2,2-dimethylhexanoic acid Coenzyme A ester]	–	–	3.34e-06 M and 2.28e-06 M and 2.5e-06 M
